Among the data in the OPERA property sets (Mansouri et al. 2018) are logP values, retold here.

Where a SMILES comes first, the peptide text is derived from it.

One may read the logP as a log measure of how a compound divides between an organic and an aqueous phase. As for `CC(C)(C)[N+]([O-])=Cc1ccc([N+](=O)[O-])cc1`, the logP came to 1.4. Next, `CCCc1nc(NCN2CCCC2=O)nc(N2CCOCC2)n1`: 1.62; `OCCCCNc1ncnc2c1ncn2C1OC(CO)C(O)C1O` (stereo not drawn): -0.62; `CCCc1nc(NC)nc(N2CCOCC2)n1`: 2.15. The molecule `NC(Cc1ccc(O)cc1)C(=O)NCC(=O)NC(Cc1ccccc1)C(=O)O` (stereo not drawn) (H-Tyr-Gly-Phe-OH; configuration not given here) came in with a logP of -1.86. Next, `O=C(O)CCCCON=C(c1ccccc1)c1cncnc1`: 2.65; `O=C1C=C(N2CCCC2)C(=O)N1c1ccc(Cl)cc1`: 3; `O=C1N=C(N2CCOCC2)CN1Cc1c(Cl)cccc1Cl`: 1.3.

Molecule `CC(=O)C(Cc1ccccc1)=C(C)O` returned a logP of 1.89. The result for `Cc1sc2ccc3c(C)cc(=O)oc3c2c1C` reads 3.65; that for `CC1(C)N(O)C(c2ccc([N+](=O)[O-])cc2)=[N+]([O-])C1(C)C`, 1.68; that for `CCNC(=O)Cn1cccc(O)c1=O`, -0.74. Regarding `CC1=C2C3OC(=O)C(C)C3C(O)C(O)C2(C)C=CC1=O` (stereo not drawn), the logP is -0.7. The result for `O=C1c2ccc(O)cc2OCN1CCO[N+](=O)[O-]` reads 1.63; that for `O=C1N=C(N2CCOCC2)CN1Cc1ccc(I)cc1`, 1.7. The result for `O=C(O)CCCCON=C(c1cccc(C(F)(F)F)c1)c1cccnn1` reads 2.8; that for `CCCC(=NOCC)C1=C(O)CC(C)(C2CC2)OC1=O` (stereo not drawn), 3.28. Next, `Nc1nnnn1-c1ccccc1`: 0.69.

With `COC(=O)C(C)=CC1C(C(=O)OCc2cccc(C(=O)c3ccccc3)c2)C1(C)C` (stereo not drawn), the logP turned out to be 5.45. `Cc1cc2ccc(=O)oc2c2c(C)coc12` returned a logP of 2.88.

As for `COC(=O)C1=C(C)NC(C)=C(C(=O)OCC=Cc2ccccc2)C1c1cccc([N+](=O)[O-])c1` (stereo not drawn), the logP stood at 5.69. The result for `O=c1cc(-c2ccccc2)on1-c1ccc(Cl)cc1` reads 4.1; that for `CCC(CC)C(=O)NS(=O)(=O)c1ccc(C(F)(F)F)cc1[N+](=O)[O-]`, 3.57.

In the case of `CCOC(=O)C1=C(C)NC(C)=C(C(=O)OC)C1c1cc(OC)c(O)c(OC)c1` (stereo not drawn), the logP was 2.83.

For the molecule `CCCCN(C)CC(=O)Nc1c(C)cccc1C`, the lipophilicity (logP) turned out to be 2.74. This logP and that of the molecule before are within 0.2 log units of each other.

The molecule `COC(=O)C1=C(C)NC(C)=C(C(=O)OC(C)C)C1c1cccc2c1OCO2` (stereo not drawn) returned a logP of 4.15.

Turning to `CNC(C)Cc1ccc(OC)cc1` (stereo not drawn), the logP worked out at 1.91. Molecule `Cc1ccc(S(=O)(=O)C2(C(=O)OC(C)C)CCCCC2)cc1` gave a logP of 3.21. The result for `CCN(CC)CCC(=O)Nc1ccc(N)cc1` reads 0.8; that for `OCCCCCCCNc1ncnc2c1ncn2C1OC(CO)C(O)C1O` (stereo not drawn), 0.68. Next, `CC(C)(C)Nc1nc(N)nc(Cl)n1`: 1.94; `CC(C)C(NC(=O)C(Cc1ccccc1)NC(=O)CNC(=O)CN)C(=O)NC(Cc1ccccc1)C(=O)O` (stereo not drawn) (H-GGFVF-OH; configuration not given here): -1.4; `COC(=O)C(Cc1ccccc1)(Cc1ccccc1)S(=O)(=O)c1ccc([N+](=O)[O-])cc1`: 4.46. Next, `Nc1ccc(CNC(=O)C2CCCN2C(=O)C(Cc2ccc(Cl)c(Cl)c2)NS(=O)(=O)Cc2ccccc2)cn1` (stereo not drawn): 3.68; `CC(=NNC(=O)c1ccc([N+](=O)[O-])cc1)c1cnccn1`: 2.1; `Cc1ccc(CO)c(C=NNC(=O)c2ccc([N+](=O)[O-])cc2)c1O`: 3.03.

In the case of `CCOc1cc2ncnc(Nc3cccc(I)c3)c2cc1OCC`, the log partition coefficient (logP) was determined as 4.62.

Turning to `Cc1cc(C)cc(OCC2CN=C(N)O2)c1` (stereo not drawn), the logP stood at 2.25. `c1cc2ccc1CCc1ccc(cc1)CC2` yielded a logP of 4.33. Next, `CCCc1nc(N(C)C)nc(N2CCOCC2)n1`: 1.64; `Cc1cccc(Cc2c[nH]cn2)c1`: 2.39; `CCOc1cc2ncnc(Nc3cccc(Cl)c3)c2cc1OCC`: 4.31. Next, `c1ccc(N2CCN(CCn3nnc4ccccc43)CC2)cc1`: 2.74; `OC(CNC1CCCCC1)CON=C(C1CC1)C1CC1` (stereo not drawn): 2.64; `CC(C)(C)OC(=O)NC(Cc1c[nH]c2ccccc12)C(=O)O` (stereo not drawn): 2.65.

With `CC(=O)Nc1ccc(/C=C/c2n[nH]c(=O)cc2C)cc1`, the logP came to 1.27.

With `CCOC(=O)c1cccc2c1CC(c1ccc(OC)cc1)C(OC(C)=O)C(=O)N2CCN(C)C` (stereo not drawn), the lipophilicity (logP) amounted to 4.2. In turn, `COc1cc(Cl)ccc1O` registered a logP of 2.15. The result for `Cc1ccccc1Nc1ccncc1S(=O)(=O)NC(=O)NC1CCCCC1` reads 4.35.

Consider `c1ccc(N2CCN(CCn3nc4ccccc4n3)CC2)cc1`, for which the log partition coefficient (logP) is 3.34. Next, `Cc1nccc2c1[nH]c1cc(O)ccc12`: 2.84.

As to `CC(C)CNc1[nH]cnc2ncnc1-2`, the lipophilicity (logP) came to 1.92. The result for `C[N+](C)([O-])CCc1ccccc1` reads -0.28; that for `CCCOc1cccc(NC(=O)OCCN2CCCCC2)c1`, 4.48; that for `CC(NCC(O)CON=C(C1CC1)C1CC1)c1ccccc1` (stereo not drawn), 2.32. Next, `CCCCc1c(O)c(=O)cc(C)n1C`: 0.9; `COc1ccc(C(=O)N2CCN(c3ccc4c(c3)CCC(=O)N4)CC2)cc1OC`: 1.04. Next, `CS(=O)c1ccc2c(c1)C(c1ccccc1)=NCC(=O)N2` (stereo not drawn): 0.8; `CNc1ccc(S(=O)(=O)N(C)C)cc1`: 1.43; `COc1ccc(C2Cc3cc(SC)ccc3N(CCN(C)C)C(=O)C2OC(C)=O)cc1` (stereo not drawn): 4. Molecule `COc1cc2ccncc2cc1OC` showed a lipophilicity (logP) of 1.68. Next, `OC(CNCC(O)C1CCc2cc(F)ccc2O1)C1CCc2cc(F)ccc2O1` (stereo not drawn): 4.04. `O=C1C(O)N=C(c2ccccc2)c2cc([N+](=O)[O-])ccc2N1CCO` (stereo not drawn) displayed a logP of 0.72.

In the case of `CCOC(=O)C1=C(C)NC(C)=C(C(=O)OC)C1c1cc(OC)c(OC)c(OC)c1` (stereo not drawn), the logP came to 3.39. Next, `Cc1nc2c3c(c(C(N)=O)cn2c1C)CCC(c1ccccc1)O3` (stereo not drawn): 3.5. The result for `CC(N)C(=O)N1CCCC1C(=O)O` (stereo not drawn) reads -2.71. Next, `O=c1cc(-c2ccccc2)oc2ccc(Cl)cc12`: 3.92.

The molecule `CC(C)CC(NC(=O)C(N)Cc1c[nH]c2ccccc12)C(=O)NC(Cc1ccccc1)C(=O)NC(C)C(=O)NC(C)C(=O)O` (stereo not drawn) (H-WLFAA-OH; configuration not given here) showed a logP of -0.32. The result for `CCCCCCC(=O)Oc1ccc2c3c1OC1C(OS(=O)(=O)O)C=CC4C(C2)N(C)CCC341` (stereo not drawn) reads 0.36; that for `O=C1c2ccc(C(F)(F)F)cc2OCN1CCO[N+](=O)[O-]`, 3.01. Next, `O=C(O)c1cc(O)c2ccc(Cl)cc2n1`: 1.05.

Take `CCCSc1cccc2nc(N)nc(N)c12`: the logP is 2.85. The result for `CCCNc1nc(CCC)nc(N2CCOCC2)n1` reads 2.7. The result for `CCCNC(=O)N1C(=O)N(C)CC1O` (stereo not drawn) reads 0.99; that for `CCNC(=O)NS(=O)(=O)c1cnccc1NC1CCCCCCC1`, 3.57. The result for `CCCCCCCOC(C)=O` reads 3.46; that for `O=c1ccc2cc3ccsc3cc2o1`, 2.27.

For `O=C1CNC(=O)C(Cc2c[nH]c3ccccc23)N1` (stereo not drawn), the logP is 0.07. Next, `CC(C)NC(=NC#N)NS(=O)(=O)c1cnccc1NC1CC1`: 0.01.

Molecule `OC(CNCCc1ccccc1)CON=C(C1CC1)C1CC1` (stereo not drawn) yielded a lipophilicity (logP) of 2.44. The result for `Cc1c(O)c(=O)ccn1CCCOC(=O)c1ccc(F)cc1` reads 1.47; that for `Cc1cccc(Nc2ccncc2S(=O)(=O)NC(=O)NC(C)C)c1`, 3.37. The result for `CC(=O)Nc1cc(NCC(C)O)c(Cl)cc1N=Nc1ccc([N+](=O)[O-])cc1Cl` (stereo not drawn) reads 4. The result for `Cc1ccc(C)c(Cc2cnc[nH]2)c1` reads 2.72; that for `CC(=O)OC1C(C)OC(n2cc(F)c(=O)[nH]c2=O)C1OC(C)=O` (stereo not drawn), -0.02. As to `COc1cccc2c1CCC(N)C2C` (stereo not drawn), the logP was found to be 2.26. Next, `CCNC(=S)SC`: 1.57; `Cc1oc2cc3oc(=O)cc(C)c3cc2c1C`: 3.22.

For the molecule `CNc1nccn2c(Cc3ccccc3F)nnc12`, the logP came to 1.56. The result for `O=C1N=C(N2CCCCC2)CN1c1ccc(Cl)cc1` reads 2.3; that for `c1ccc(CCNc2ncnc3nc[nH]c23)cc1`, 2.42; that for `CC(N)C(=O)NCC(=O)NC(Cc1ccccc1)C(=O)NC(C(=O)NC(Cc1ccccc1)C(=O)O)C(C)C` (stereo not drawn) (H-AGFVF-OH; configuration not given here), -1.1. The result for `c1ccc(CCCc2ccccc2)cc1` reads 3.43; that for `OCC1OC(n2cnc3c(NCc4ccco4)ncnc32)C(O)C1O` (stereo not drawn), 0.52.

In the case of `CNc1ncnc2c1ncn2Cc1ccccc1F`, the logP amounted to 1.86. Next, `C[N+](C)([O-])CCCc1ccccc1`: -0.04; `CCCCCCCCOC(=O)c1cccnc1`: 4.71; `CC(=O)O[C@H]1[C@@H](O)C[C@H](O[C@H]2[C@@H](O)C[C@H](O[C@H]3[C@@H](O)C[C@H](O[C@H]4CC[C@@]5(C)[C@H](CC[C@@H]6[C@@H]5C[C@@H](O)[C@]5(C)[C@@H](C7=CC(=O)OC7)CC[C@]65O)C4)O[C@@H]3C)O[C@@H]2C)O[C@@H]1C`: 2.

`COC(=O)C(C)=CC1C(C(=O)OCc2cccc(COc3ccccc3)c2)C1(C)C` (stereo not drawn) yielded a log partition coefficient (logP) of 6.06. In turn, `O=c1cc(-c2cccc(Cl)c2)oc2ccc(Cl)cc12` registered a logP of 4.38. `O=C1C=C(N2CCCCC2)C(=O)N1c1ccc(F)cc1` registered a logP of 2.6. The result for `CCCC(=NOCC)C1=C(O)CC2(CC(C)CC(C)C2)OC1=O` (stereo not drawn) reads 4.47; that for `O=[N+]([O-])c1ccc(-n2cccn2)cc1`, 2.25; that for `CCCOCCCNc1ncnc2c1ncn2C1OC(CO)C(O)C1O` (stereo not drawn), 0.81. The result for `COc1ccccc1OCCN(C)C` reads 1.42. Next, `O=C1C=C(c2ccc(Cl)cc2)C(=O)N1c1ccc(Cl)cc1`: 3; `COc1ccc(-c2ccoc2)cc1CNC1CCCNC1c1ccccc1` (stereo not drawn): 4.2; `Cc1c(C)c2ccc3occ(C)c3c2oc1=O`: 3.34.
